Source: article PMC9851200, “Multiparameter phenotypic screening for endogenous TFEB and TFE3 translocation identifies novel chemical series modulating lysosome function” (Autophagy, 2022)

Key:
Assay type in all cases: binding
[1] = target: T1, kinases (KINOMEscan panel) (Homo sapiens, UniProt Q14164)
T1 sequence (Q14164 1-716): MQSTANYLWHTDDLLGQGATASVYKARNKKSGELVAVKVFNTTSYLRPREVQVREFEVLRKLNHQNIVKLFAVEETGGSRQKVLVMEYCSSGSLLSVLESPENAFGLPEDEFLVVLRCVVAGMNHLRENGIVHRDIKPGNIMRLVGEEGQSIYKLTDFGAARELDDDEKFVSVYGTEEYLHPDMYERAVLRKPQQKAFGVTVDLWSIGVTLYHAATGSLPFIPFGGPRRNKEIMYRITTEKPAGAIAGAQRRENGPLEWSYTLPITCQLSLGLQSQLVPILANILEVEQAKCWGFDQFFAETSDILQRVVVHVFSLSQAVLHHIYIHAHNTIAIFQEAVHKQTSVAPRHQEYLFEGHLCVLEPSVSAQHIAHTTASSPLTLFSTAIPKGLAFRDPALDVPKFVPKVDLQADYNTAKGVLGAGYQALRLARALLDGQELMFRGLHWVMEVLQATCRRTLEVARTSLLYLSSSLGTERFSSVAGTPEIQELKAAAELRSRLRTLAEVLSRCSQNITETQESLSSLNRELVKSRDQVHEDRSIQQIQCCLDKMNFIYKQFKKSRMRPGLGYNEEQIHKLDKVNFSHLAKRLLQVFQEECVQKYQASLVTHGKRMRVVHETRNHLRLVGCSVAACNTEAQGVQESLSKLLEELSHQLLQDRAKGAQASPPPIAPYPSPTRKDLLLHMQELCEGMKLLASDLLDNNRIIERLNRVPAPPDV

[2] = target: T2, kinases (KINOMEscan panel) (Homo sapiens, UniProt O14965); conditions: NEW KINOMEscan
T2 sequence (O14965 1-403): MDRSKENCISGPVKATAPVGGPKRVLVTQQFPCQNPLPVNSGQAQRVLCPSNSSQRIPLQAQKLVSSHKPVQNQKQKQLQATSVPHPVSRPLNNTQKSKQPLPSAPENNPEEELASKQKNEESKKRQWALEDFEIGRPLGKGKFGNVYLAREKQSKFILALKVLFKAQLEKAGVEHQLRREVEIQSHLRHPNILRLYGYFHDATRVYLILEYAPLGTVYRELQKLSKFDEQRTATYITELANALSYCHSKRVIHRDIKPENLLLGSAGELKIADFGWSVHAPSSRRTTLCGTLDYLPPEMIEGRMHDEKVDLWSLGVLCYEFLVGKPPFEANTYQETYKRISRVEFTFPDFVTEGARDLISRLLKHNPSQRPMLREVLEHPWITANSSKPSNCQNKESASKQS

[3] = target: kinases (KINOMEscan panel) (Homo sapiens, UniProt P27037); conditions: ACVR2A; NEW KINOMEscan
[4] = target: T3, kinases (KINOMEscan panel) (Homo sapiens, UniProt Q8IYT8); conditions: NEW KINOMEscan
T3 sequence (Q8IYT8 1-1036): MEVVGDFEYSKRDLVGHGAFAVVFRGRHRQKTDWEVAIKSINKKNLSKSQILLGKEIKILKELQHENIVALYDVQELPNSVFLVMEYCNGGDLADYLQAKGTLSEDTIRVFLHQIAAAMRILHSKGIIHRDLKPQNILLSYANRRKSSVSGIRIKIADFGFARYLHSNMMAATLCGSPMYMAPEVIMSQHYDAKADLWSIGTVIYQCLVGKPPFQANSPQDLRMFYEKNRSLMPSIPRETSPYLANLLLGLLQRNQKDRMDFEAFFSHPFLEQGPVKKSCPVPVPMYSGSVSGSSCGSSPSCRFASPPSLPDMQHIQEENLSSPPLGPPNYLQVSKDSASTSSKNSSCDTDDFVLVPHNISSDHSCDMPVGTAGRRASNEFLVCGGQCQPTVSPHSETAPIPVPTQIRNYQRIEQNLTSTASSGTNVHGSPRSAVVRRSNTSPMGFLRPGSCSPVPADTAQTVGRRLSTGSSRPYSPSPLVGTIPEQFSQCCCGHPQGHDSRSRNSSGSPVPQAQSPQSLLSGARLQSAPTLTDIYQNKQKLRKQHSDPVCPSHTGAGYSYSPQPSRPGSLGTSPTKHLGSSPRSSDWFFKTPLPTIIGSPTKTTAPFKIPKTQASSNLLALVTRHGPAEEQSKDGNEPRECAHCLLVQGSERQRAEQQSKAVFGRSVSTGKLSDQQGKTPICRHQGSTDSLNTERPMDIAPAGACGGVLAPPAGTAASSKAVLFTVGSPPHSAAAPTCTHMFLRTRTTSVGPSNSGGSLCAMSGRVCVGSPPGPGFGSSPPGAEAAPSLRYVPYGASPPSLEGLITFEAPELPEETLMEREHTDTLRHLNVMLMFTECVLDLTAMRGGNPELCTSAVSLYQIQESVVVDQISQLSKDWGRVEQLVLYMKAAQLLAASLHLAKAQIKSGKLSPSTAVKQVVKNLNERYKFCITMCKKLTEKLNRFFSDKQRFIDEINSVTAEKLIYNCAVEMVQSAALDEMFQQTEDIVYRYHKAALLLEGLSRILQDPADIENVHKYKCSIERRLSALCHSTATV

[5] = target: kinases (KINOMEscan panel) (Homo sapiens, UniProt P11362); conditions: kinase FGFR1; NEW KINOMEscan
kinases (KINOMEscan panel) (Homo sapiens, UniProt P11362), sequence (P11362 22-822): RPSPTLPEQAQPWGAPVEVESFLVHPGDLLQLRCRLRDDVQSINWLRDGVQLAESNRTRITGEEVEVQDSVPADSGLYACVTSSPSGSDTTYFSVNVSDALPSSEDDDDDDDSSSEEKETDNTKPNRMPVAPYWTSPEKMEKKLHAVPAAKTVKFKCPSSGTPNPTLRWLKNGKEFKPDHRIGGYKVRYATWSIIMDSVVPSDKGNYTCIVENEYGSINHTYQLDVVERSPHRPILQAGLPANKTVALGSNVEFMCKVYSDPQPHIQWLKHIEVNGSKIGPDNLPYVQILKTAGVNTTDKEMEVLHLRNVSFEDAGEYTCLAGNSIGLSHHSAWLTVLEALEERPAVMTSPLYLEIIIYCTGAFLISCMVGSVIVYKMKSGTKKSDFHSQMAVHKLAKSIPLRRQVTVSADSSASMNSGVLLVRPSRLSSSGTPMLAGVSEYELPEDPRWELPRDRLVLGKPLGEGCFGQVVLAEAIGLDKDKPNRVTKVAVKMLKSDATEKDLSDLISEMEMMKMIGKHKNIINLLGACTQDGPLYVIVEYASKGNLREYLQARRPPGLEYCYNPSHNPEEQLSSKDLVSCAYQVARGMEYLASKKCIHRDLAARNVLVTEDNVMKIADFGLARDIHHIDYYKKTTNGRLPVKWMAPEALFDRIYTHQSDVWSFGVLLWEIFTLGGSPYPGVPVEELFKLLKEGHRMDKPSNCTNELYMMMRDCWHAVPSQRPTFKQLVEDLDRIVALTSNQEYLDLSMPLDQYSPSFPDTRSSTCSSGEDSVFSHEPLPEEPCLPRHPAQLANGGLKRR

kinases (KINOMEscan panel) (Homo sapiens, UniProt P27037), sequence (P27037 20-513): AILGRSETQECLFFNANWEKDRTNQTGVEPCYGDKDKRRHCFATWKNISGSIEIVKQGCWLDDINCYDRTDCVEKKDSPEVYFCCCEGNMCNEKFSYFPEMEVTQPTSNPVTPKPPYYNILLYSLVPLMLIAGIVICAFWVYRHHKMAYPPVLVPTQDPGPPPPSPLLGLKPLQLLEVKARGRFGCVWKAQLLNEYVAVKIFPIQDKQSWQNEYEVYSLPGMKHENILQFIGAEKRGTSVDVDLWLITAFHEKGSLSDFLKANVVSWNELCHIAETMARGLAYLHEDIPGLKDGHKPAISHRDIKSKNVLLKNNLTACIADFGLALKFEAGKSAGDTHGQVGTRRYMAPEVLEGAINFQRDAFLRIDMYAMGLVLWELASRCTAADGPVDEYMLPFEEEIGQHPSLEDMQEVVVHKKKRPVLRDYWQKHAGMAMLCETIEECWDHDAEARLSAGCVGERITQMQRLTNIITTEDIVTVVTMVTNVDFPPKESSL

| SMILES | KINOMEscan IKBKE/IKK-epsilon [1] | KINOMEscan AURKA [2] | KINOMEscan ACVR2A [3] | KINOMEscan ULK2 [4] | KINOMEscan FGFR1 [5] |
| --- | --- | --- | --- | --- | --- |
| Cc1cccc(-c2nc(Nc3ccc4nn(C)cc4c3)c3ccccc3n2)n1 [NK167] | 0 | 3 | 0 | 17 | 15 |
| Cc1cccc(-c2nc(N(C)c3ccc4ncsc4c3)c3ccccc3n2)n1 [NK-161] | 0 | 22 | 0 | 23 | 10 |
